≈ marks a conversion by molar mass, not a printed value.
Key:
PC-3 cells = experiment: MTT cell viability assay, PC-3 prostate cancer cells; assay type: cell-based; conditions: Homo sapiens, 24 h
Experimental: Human U373 glioma, MCF7 breast cancer, A549 lung cancer and PC-3 prostate cancer cells were grown in Dulbecco’s Modified Eagle Medium (DMEM), supplemented with 10% foetal bovine serum, 2 mM glutamine, 100 U/mL penicillin/streptomycin, at 37 °C in a humidified atmosphere containing 5% CO2 (logarithmic growth phase, routine passages every 3 days). The human breast epithelial cell line MCF10 was cultured in DMEM/F12 Ham’s Mixture supplemented with 5% horse serum, epithelial growth factor 20 ng/mL, insulin 10 μg/mL, hydrocortisone 0.5 mg/mL, cholera toxin 100 ng/mL, and 100 U/mL penicillin/streptomycin. […]
U373, MCF7, A549, PC-3, HUVEC, and MCF10 cell viability was determined by MTT assay using published protocols. MTT absorbance was quantified spectrophotometrically using a Glomax Multi Detection System microplate reader (Promega, Milano, Italy).
Statistical significance of raw data between the groups in each experiment was evaluated using unpaired Student’s t-test (single comparisons) or one-way ANOVA followed by the Newman-Keuls post-test (multiple comparisons). The IC50 and Emax concentration were determined by non-linear regression curve analysis of the concentration-effect responses. […] The results were expressed as means ± standard error of mean (SEM) of the indicated n values.

caspase 7 = experiment: Cleaved-caspase 7 western blot in MCF10 cells; assay type: cell-based, human; conditions: MCF10, 6 h; gibbilimbol B/eriopodol A 30 µg/mL, erioquinol 10 µg/mL
Text: Using published protocols, MCF7 and MCF10 cells were homogenised in RIPA lysis buffer, supplemented with a cocktail of protease inhibitors (cOmplete; Roche Diagnostics, Milano, Italy). Equal amounts of proteins were separated by 4–20% SDS-polyacrylamide gel electrophoresis (Criterion TGX Stain-free precast gels and Criterion Cell system; Bio-Rad, Hercules, CA, USA) and transferred onto nitrocellulose membrane using a Bio-Rad Trans-Blot Turbo System. When indicated, the membranes were probed using the rabbit monoclonal anti-cleaved caspase 7 and anti-XIAP (Cell Signaling Technology) primary antibodies. After the incubation with the appropriate horseradish-peroxidase-conjugated secondary antibody (Cell Signaling Technology), bands were visualised using the Clarity Western ECL substrate with a ChemiDoc MP imaging system (Bio-Rad). To monitor for potential artefacts in loading and transfer among samples in different lanes, the blots were routinely treated with the Restore Western Blot Stripping Buffer (ThermoFisher Scientific) and re-probed with the goat anti-Lactate dehydrogenase (LDH)-A (Santa Cruz Biotechnology) and the mouse anti-vinculin primary antibodies. The stain-free gel was used as loading control as well. When appropriated, bands were quantified for densitometry using the Bio-Rad Image Lab software.
Figure S6. Western blot. […]

Row | SMILES | IC50 (PC-3 cells) [µg/mL] | activation of caspase 7 (caspase 7)
1 | CCCCCC/C=C\CCC1(O)C=CC(=O)C=C1 [Erioquinol, (Z)-4-(dec-3′-enyl)-4-hydroxycyclohexa-2,5-dien-1-one] | 2.21 (≈ 8.9 µM) | –
2 | CCCCCC/C=C/CCc1ccc(O)cc1 [Gibbilimbol B, (E)-4-(dec-3′-enyl)phenol] | – | activation of caspase 7

From paper PMC6770071, “XIAP as a Target of New Small Organic Natural Molecules Inducing Human Cancer Cell Death” (Cancers, 2019)
